Assay results: ChEMBL document CHEMBL1201862, “PubChem BioAssay data set” (2004)
Active and inactive are the calls of the source.

Columns and labels:
[1] = Luminescence Cell-Based Dose Response HTS to Identify Activators of Luciferase Translation or Activity in H4 […] Cells. [Related pubchem assays: 1829 (Project Summary), 1814 (Primary HTS)]; format: functional
[2] = molecular target: T1, Nuclear receptor subfamily 0 group B member 1 (Homo sapiens, UniProt P51843); experiment: Luminescence-based cell-based high throughput dose response assay for inhibitors of the orphan nuclear receptor subfamily 0, group B, member 1 (DAX1; NR0B1). [Related pubchem assays (depositor defined):AID504766, AID504790]; format: functional
T1 sequence (P51843 whole entry): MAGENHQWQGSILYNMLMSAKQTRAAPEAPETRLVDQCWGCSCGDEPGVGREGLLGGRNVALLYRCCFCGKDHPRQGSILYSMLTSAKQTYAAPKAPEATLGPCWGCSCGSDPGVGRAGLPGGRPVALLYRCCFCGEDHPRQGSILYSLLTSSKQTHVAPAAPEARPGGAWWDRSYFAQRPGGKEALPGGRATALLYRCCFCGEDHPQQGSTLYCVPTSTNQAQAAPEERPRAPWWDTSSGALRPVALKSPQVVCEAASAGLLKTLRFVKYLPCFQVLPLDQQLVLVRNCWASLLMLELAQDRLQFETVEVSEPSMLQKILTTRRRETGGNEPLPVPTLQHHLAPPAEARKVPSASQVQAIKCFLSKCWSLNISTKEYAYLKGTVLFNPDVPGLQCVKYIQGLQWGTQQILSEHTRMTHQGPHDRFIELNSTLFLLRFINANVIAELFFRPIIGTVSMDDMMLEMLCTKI

[3] = test system: H4; experiment: Luminescence Cell-Based Dose Response HTS to Identify Activators of 5'UTR Stem-Loop Driven Prion Protein mRNA Translation in H4 Neuroglioblastoma Cells. [Related pubchem assays: 1829 (Project Summary), 1814 (Primary HTS)]; format: functional; conditions: Homo sapiens
[4] = test system: HEK293; experiment: cells; format: functional, cell-based; conditions: Homo sapiens
[5] = molecular target: Beta-galactosidase (Escherichia coli, UniProt Q8VNN2); experiment: PubChem AID 485352; format: functional
Beta-galactosidase, sequence (Q8VNN2 whole entry): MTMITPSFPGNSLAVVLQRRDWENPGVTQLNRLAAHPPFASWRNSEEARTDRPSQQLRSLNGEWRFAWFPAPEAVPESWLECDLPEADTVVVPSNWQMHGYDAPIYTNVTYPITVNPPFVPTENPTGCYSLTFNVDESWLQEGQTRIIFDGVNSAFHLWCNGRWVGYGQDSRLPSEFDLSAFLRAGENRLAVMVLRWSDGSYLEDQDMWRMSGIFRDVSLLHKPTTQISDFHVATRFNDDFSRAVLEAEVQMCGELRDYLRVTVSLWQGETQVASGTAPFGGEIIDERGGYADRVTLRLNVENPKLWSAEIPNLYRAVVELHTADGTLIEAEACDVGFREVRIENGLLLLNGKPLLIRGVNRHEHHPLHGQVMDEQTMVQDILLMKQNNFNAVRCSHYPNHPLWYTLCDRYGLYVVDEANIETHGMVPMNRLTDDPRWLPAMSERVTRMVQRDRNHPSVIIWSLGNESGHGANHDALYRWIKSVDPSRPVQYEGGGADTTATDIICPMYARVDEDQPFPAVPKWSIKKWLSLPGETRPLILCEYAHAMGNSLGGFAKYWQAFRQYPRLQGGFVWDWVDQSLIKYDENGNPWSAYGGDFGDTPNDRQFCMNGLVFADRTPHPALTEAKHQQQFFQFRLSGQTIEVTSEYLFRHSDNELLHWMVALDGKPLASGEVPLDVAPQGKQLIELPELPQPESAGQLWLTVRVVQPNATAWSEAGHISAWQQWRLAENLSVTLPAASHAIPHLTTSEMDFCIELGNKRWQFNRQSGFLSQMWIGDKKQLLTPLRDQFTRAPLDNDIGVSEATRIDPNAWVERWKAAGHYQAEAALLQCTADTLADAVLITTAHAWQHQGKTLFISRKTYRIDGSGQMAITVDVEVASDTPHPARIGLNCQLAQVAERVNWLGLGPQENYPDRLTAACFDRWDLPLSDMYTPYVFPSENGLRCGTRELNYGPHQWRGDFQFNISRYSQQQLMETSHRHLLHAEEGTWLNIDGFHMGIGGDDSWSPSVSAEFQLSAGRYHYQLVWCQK

[6] = molecular target: T2, Type-1 angiotensin II receptor (Homo sapiens, UniProt P30556); experiment: AT1 receptor antagonists, dose response, selectivity assay for APJ receptor antagonist project, cell-based, uHTS hits (AID 463214); format: functional;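 note: antagonist potency against angiotensin II stimulated AT1 response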
T2 sequence (P30556 whole entry): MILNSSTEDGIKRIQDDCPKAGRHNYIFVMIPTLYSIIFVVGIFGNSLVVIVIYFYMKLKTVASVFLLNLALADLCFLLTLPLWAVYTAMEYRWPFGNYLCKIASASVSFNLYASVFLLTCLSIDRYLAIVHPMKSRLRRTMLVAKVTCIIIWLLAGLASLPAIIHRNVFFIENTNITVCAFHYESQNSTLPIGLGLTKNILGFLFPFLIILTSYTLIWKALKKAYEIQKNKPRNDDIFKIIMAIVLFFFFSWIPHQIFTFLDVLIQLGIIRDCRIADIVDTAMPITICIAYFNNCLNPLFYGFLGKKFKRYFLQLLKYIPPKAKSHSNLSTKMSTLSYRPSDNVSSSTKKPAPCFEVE

[7] = molecular target: Glucose-6-phosphate 1-dehydrogenase (Homo sapiens, UniProt P11413); experiment: human G6PD enzyme inhibitors, dose response, selectivity assay for P. falciparum G6PD inhibitor project, biochemical, fluorescence (AID 504792); format: functional
Glucose-6-phosphate 1-dehydrogenase, sequence (P11413 whole entry): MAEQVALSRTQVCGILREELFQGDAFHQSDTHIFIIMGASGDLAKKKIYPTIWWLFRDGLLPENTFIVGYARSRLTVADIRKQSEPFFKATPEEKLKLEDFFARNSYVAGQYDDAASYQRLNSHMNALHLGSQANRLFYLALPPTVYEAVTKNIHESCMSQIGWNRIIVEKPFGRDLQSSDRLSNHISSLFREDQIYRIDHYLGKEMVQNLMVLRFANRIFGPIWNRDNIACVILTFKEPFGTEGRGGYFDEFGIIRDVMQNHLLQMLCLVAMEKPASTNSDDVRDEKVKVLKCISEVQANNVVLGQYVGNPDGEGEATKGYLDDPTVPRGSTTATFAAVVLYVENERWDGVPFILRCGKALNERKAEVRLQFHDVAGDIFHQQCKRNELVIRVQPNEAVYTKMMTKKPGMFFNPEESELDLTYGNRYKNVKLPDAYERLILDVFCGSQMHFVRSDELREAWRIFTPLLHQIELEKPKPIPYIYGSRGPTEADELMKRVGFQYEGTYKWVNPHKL

[8] = test system: Vero; experiment: cells; format: functional; conditions: Chlorocebus sabaeus
[9] = test system: Vero; experiment: Vero cell cytotoxicity, cytotoxicity control for flavivirus capping enzyme inhibitors (AID 588742); format: functional; conditions: Chlorocebus sabaeus
[10] = molecular target: Beta-arrestin-1 (Homo sapiens, UniProt P49407); experiment: inhibitors of arrestin peptide binding to AP2, dose response, biochemical, cherry pick 1, beta2-adaptin appendage, flow cytometry (AID 588783); format: functional
Beta-arrestin-1, sequence (P49407 whole entry): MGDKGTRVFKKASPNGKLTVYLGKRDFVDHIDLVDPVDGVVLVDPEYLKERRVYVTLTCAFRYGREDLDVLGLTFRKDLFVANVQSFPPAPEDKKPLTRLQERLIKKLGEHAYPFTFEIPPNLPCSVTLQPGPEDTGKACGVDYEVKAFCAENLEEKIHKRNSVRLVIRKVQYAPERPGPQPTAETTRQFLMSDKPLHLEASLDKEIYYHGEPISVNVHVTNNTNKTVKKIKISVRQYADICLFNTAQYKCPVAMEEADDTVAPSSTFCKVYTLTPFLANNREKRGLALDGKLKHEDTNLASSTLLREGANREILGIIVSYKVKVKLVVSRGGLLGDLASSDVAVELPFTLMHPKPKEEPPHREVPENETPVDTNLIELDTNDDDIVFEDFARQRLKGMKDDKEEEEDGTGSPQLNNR

[11] = molecular target: Heat shock protein HSP 90-alpha (Homo sapiens, UniProt P07900); format: functional, organism-based
[12] = molecular target: Genome polyprotein (dengue virus type 2, UniProt P29990); experiment: Dengue-2 NS5 methyltransferase inhibitors, primary screen, biochemical, confirmation dose response (AID 588689); format: functional
Genome polyprotein, sequence (P29990 2492-3391 limits assumed): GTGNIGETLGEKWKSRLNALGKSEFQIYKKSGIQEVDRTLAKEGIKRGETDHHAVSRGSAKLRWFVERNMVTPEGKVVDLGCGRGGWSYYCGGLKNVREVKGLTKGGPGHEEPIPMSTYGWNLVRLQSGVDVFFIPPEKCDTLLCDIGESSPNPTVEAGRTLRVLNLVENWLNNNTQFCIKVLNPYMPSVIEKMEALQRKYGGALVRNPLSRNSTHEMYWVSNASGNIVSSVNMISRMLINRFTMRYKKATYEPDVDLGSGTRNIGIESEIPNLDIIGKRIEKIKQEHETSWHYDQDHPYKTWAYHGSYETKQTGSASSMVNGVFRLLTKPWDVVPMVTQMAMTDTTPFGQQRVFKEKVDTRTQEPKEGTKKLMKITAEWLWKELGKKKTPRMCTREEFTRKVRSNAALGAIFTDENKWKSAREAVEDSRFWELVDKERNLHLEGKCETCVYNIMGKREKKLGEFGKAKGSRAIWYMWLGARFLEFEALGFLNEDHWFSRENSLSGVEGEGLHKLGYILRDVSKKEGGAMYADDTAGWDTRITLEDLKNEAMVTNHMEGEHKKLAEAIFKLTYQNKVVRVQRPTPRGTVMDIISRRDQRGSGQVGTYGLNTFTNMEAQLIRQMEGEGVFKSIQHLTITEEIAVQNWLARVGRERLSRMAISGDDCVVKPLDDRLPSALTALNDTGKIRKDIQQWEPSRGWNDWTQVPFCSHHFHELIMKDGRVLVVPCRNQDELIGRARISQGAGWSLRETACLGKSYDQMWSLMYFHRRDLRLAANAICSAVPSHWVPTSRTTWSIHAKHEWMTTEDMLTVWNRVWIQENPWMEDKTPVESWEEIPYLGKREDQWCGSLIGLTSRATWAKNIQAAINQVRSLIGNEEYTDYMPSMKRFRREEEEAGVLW

[13] = molecular target: T3, Short transient receptor potential channel 4 (Mus musculus, UniProt Q9QUQ5); experiment: TRPC4 inhibitor concentration-response, dose response, cell-based, HEK293 TRPC4/mu-opioid, DAMGO stimulus, Fluo-4 (AID 492994); format: functional
T3 sequence (Q9QUQ5 whole entry): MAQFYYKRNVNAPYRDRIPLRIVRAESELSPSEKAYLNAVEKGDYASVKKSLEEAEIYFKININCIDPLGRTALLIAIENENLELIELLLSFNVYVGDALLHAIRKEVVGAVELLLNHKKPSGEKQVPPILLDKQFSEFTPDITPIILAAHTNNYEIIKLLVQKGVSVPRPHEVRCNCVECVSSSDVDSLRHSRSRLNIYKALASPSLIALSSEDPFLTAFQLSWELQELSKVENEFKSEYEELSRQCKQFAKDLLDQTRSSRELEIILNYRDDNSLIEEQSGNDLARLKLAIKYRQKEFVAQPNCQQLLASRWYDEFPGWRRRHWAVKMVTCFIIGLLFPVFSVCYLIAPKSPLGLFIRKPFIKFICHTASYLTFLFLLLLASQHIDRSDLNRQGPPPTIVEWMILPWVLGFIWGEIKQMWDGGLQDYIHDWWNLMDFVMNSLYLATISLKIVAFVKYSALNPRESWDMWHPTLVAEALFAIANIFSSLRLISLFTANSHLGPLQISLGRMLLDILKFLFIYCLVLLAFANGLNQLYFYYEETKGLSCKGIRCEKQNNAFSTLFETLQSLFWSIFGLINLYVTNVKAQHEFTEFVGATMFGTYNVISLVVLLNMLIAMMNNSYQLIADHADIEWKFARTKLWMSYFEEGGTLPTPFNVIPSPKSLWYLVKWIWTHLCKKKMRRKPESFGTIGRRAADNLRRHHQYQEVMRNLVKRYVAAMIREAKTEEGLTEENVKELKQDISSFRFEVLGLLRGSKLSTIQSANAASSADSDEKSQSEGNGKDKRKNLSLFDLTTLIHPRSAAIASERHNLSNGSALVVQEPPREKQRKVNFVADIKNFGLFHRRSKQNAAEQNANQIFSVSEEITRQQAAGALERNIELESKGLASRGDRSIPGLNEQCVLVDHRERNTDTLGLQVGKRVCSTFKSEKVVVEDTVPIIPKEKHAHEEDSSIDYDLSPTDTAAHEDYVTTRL

[14] = test system: BJ; experiment: cytotoxicity toward BJ-TERT fibroblasts, dose response, cell-based, RAS-independent, luminescence (AID 1933); format: functional; conditions: Homo sapiens
[15] = inhibitors of SNCA 5'UTR-driven reporter translation, confirmation, H4 neuroglioma cells, luminescence (AID 1988); format: functional, cell-based
[16] = Luminescence Cell-Based Dose Response HTS to Identify Inhibitors of 5'UTR Stem-Loop Driven Prion Protein mRNA Translation in H4 Neuroglioblastoma Cells. [Related pubchem assays: 1827 (Project Summary), 1813 (Primary HTS)]; format: functional
[17] = test system: BJ; experiment: cells; format: functional, cell-based; conditions: Homo sapiens
[18] = test system: BJ; experiment: cytotoxicity toward BJ-TERT-LT-ST fibroblasts, dose response, cell-based, RAS-independent, luminescence (AID 1935); format: functional; conditions: Homo sapiens;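 note: BJ fibroblasts immortalized with TERT plus LT and ST oncogenes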
[19] = inhibitors of firefly luciferase expression or activity, dose response, H4 neuroglioma cells, luminescence (AID 1990); format: functional, cell-based
[20] = test system: BJ; experiment: cytotoxicity toward Ras-transformed BJeLR fibroblasts, dose response, cell-based, alamar blue fluorescence, cherrypicked samples (AID 2631); format: functional; conditions: Homo sapiens;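 note: confirmatory dose-response assay in RAS-dependent BJ fibroblasts engineered with TERT, LT and ST, with cytotoxicity read by fluorescence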
[21] = cytotoxicity toward DRD oncogenic fibroblasts, dose response, cell-based, non-viral oncogenic, luminescence (AID 1934); format: functional; conditions: Homo sapiens
[22] = molecular target: T4, Microphthalmia-associated transcription factor (Homo sapiens, UniProt O75030); experiment: TRPM1 promoter luciferase signal decrease, dose response, MITF inhibitor project, cell-based, SK-MEL-5, cherry-picked, set 3 (AID 493073); format: functional
T4 sequence (O75030 whole entry): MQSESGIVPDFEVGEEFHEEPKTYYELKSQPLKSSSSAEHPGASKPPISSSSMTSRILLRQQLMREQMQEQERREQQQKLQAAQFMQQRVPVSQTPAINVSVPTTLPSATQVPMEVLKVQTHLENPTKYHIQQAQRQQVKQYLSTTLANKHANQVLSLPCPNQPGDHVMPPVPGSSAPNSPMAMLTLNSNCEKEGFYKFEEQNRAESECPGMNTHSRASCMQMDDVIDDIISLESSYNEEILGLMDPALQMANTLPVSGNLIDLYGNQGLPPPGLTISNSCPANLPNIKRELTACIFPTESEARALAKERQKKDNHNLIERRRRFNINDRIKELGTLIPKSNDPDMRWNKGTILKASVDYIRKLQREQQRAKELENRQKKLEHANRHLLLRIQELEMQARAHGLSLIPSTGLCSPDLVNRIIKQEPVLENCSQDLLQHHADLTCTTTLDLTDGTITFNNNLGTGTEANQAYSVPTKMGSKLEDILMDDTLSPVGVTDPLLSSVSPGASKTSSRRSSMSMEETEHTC

[23] = growth suppression of beta-catenin-knockout colon cells, dose response, cell-based, HCT116, human colon tumor (AID 1045); format: functional;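 note: HCT116 colon tumor cells with beta catenin knocked out; cells exposed to compound for 60 hours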
[24] = test system: A-375; experiment: A375 melanoma cell viability reduction, dose response, counter-screen for MITF modulator project, cherry-pick samples, set 2 (AID 540335); format: functional, cell-based; conditions: Homo sapiens
[25] = growth suppression of PTEN-null colon cells, dose response, cell-based, HCT116 PTEN knockout (AID 1047); format: functional;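 note: HCT116 colon tumor cells with PTEN knocked out; cells exposed to compound for 60 hours before readout; potency for loss of cell viability measured by luminescence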
[26] = molecular target: Protein Wnt-3a (Mus musculus, UniProt P27467); experiment: Wnt3a-driven reporter signaling inhibition, dose response, selectivity assay for Gli-SUFU antagonist project, Wnt-LIGHT cells, luminescence (AID 651570); format: functional; conditions: read-out: IC50_Mean;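 note: Wnt-LIGHT reporter cells stimulated with conditioned medium from Wnt3a-producing cells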
Protein Wnt-3a, sequence (P27467 whole entry): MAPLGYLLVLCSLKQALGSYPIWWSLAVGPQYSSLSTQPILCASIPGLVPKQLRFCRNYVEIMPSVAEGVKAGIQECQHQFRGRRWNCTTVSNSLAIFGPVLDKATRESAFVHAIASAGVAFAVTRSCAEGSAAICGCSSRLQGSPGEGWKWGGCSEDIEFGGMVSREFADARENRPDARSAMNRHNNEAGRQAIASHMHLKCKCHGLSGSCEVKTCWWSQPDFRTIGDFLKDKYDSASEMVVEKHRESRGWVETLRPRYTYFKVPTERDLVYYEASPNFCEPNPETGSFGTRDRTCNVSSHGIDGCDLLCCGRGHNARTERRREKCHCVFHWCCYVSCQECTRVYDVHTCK

Structure (SMILES): Clc1ccc(/C=N/Nc2ncnc3ccccc23)cc1Cl
- EC50 [1]: 0.181 µM (active)
- IC50 [2]: > 67.5 µM (inactive)
- EC50 [3]: 7.13 µM (active)
- IC50 [4]: > 67.5 µM (inactive)

Structure (SMILES): CC1CCCN(CC(=O)c2ccc(Cl)c(Cl)c2)C1 (stereo not drawn)
- EC50 [5]: 30.8 µM (active)
- IC50 [6]: 4.76 µM (active)

Structure (SMILES): Cn1c2ccccc2c2ccc3c(c21)C(=O)C=CC3=O
- IC50 [7]: > 80 µM (inactive)
- CC50 [8]: 12.6 µM (active)
- CC50 [9]: 29.2 µM (active)
- IC50 [10]: 4.59 µM (active)
- AC50 [11]: 8.99 µM (active)
- IC50 [12]: 15.8 µM (active)

Structure (SMILES): Cc1cc(N2CCN(c3ncccn3)CC2)nc2ccccc12
- IC50 [13]: 469 µM (active)

Structure (SMILES): Cc1ccnc(NC(=O)c2ccccc2NC(=O)c2ccc(Cl)cc2Cl)c1
- EC50 [14]: 2.87 µM (active)
- EC50 [15]: > 120 µM (not active)
- EC50 [16]: > 120 µM (not active)
- EC50 [17]: 34.8 µM (inconclusive)
- EC50 [18]: 4.38 µM (active)
- EC50 [19]: 10.6 µM (inconclusive)
- EC50 [20]: 0.573 µM (active)
- EC50 [21]: 2.83 µM (active)

Structure (SMILES): O=C(O)Cc1sc(Nc2ccccc2)nc1-c1cccs1
- IC50 [2]: > 67.5 µM (inactive)
- IC50 [4]: > 67.5 µM (inactive)

Structure (SMILES): CCn1c(/C=C/Nc2ccccc2)[n+](CC)c2cc(Cl)c(Cl)cc21
- AC50 [22]: 14.5 µM (active)
- EC50 [23]: 1.68 µM (active)
- AC50 [24]: 34.8 µM (active)
- EC50 [25]: 2.4 µM (active)
- IC50 [26]: 7.29 µM (active)
